One series deals with T1, human mGlu2 receptor (Homo sapiens, UniProt Q14416).
T1 construct: expressed in transfected cells; host or cells: CHO cells (membrane preparation)
Put plainly: [35S]GTPγS binding assay (mGluR2 negative allosteric modulation). The series is classed as biochemical. As to conditions: for IC50: membranes from CHO cells transfected with human mGlu2 receptor, glutamate 60 μM, pIC50 = −log IC50 (M), read-out: GTPγS - hmGluR2 anGT pIC50 (converted); for Emax: relative maximal effect: maximal % inhibition relative to the control glutamate response, read-out: GTPγS - hmGluR2 anGT Emax. The method, boiled down:
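Negative allosteric modulation read as [35S]GTPγS (0.1 nM) incorporation over 30 min at 30 °C, expressed as % of the response to an EC80-equivalent glutamate concentration. Assay used 7 μg human mGlu2 CHO membrane protein in HEPES pH 7.4 buffer with NaCl, MgCl2, GDP and saponin; bound label collected by filtration.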
In general terms: Binding of GTPγS marks nucleotide exchange on a G protein.

These results are taken from patent US10106542B2, “Substituted 6,7-dihydropyrazolo[1,5-a]pyrazines as negative allosteric modulators of mGluR2 receptors” (Janssen Pharmaceutica NV, priority 2013, dated 2018).

Structures are written as SMILES.

What is called melting point is the temperature, or range, at which the solid turns liquid. In general, Emax refers to the greatest response seen or fitted, relative to the assay's reference.

T1 sequence (Q14416 19-872): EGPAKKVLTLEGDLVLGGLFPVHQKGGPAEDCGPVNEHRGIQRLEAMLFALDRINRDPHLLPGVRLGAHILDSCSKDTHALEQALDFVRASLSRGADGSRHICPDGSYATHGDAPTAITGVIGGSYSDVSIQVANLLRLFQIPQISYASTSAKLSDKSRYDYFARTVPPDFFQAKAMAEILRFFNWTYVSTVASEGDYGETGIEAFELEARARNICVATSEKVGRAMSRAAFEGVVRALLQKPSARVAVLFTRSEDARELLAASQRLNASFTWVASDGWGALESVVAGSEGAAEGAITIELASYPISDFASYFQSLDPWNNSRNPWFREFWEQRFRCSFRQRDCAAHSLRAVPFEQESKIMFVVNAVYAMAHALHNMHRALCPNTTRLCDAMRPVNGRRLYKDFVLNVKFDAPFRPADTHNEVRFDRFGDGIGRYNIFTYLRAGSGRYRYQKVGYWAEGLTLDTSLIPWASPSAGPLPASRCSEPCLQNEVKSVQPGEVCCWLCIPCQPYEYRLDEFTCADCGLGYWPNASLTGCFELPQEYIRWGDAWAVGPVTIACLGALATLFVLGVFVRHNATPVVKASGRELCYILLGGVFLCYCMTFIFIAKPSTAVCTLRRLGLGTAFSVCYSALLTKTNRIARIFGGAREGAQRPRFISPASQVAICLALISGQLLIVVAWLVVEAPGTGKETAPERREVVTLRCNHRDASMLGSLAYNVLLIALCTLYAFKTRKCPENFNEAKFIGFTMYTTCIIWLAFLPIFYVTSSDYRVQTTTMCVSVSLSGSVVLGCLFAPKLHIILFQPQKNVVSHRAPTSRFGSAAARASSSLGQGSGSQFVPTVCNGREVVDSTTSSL

The molecule `Cc1cc(-c2cnn3c2C(=O)N(c2ccc(C(F)(F)F)cc2)CC3CF)ccn1` (stereo not drawn) [compound 52, 7-(Fluoromethyl)-3-(2-methyl-4-pyridyl)-5-[4-(trifluoromethyl)phenyl]-6,7-dihydropyrazolo[1,5-a]pyrazin-4-one] yielded a melting point of over 300 °C. On human mGlu2 receptor, the IC50 is 1.05e-08 M and the Emax is 107%.
On the same counts, the results for `Cc1cc(-c2cnn3c2C(=O)N(c2ccc(S(F)(F)(F)(F)F)cc2)C[C@@H]3C)cc(C)n1` [compound 53] are 233.1 °C, 9.77e-09 M and 102%.
Molecule `Cc1cc(-c2cnn3c2C(=O)N(c2ccc(Cl)c(C(F)(F)F)c2)C[C@@H]3C)cc(C)n1` [compound 54] came in with a melting point of 205.1 °C. On human mGlu2 receptor, the IC50 is 1.05e-08 M and the Emax is 105%.
On the same counts, the results for `CCOc1cc(N2C[C@H](C)n3ncc(-c4ccncc4)c3C2=O)ccc1C(F)(F)F` [compound 55] are 104.2 °C, 1.62e-08 M and 104%.
On the same counts, the results for `C[C@H]1CN(c2ccc(S(F)(F)(F)(F)F)cc2)C(=O)c2c(-c3ccncc3)cnn21` [compound 56] are 199 °C, 1.62e-08 M and 102%.
On the same counts, the results for `C[C@H]1CN(c2ccc(Cl)c(Cl)c2)C(=O)c2c(-c3ccncc3)cnn21` [compound 57] are 153.2 °C, 1.29e-08 M and 104%.
As for `Cc1cc(-c2cnn3c2C(=O)N(c2ccc(C(F)(F)F)c(C#N)c2)C[C@@H]3C)cc(C)n1` [compound 59], the melting point was 214.1 °C. Besides, at human mGlu2 receptor, the IC50 is 3.55e-08 M and the Emax was found to be 98%.
As for `C[C@H]1CN(c2ccc(C(F)(F)F)c(F)c2)C(=O)c2c(-c3ccncc3)cnn21` [compound 60], the melting point came to 163.8 °C. For the same molecule, on human mGlu2 receptor, the IC50 was 3.16e-08 M and the maximum response (Emax) is 101%.
`Cc1cc(-c2cnn3c2C(=O)N(c2ccc(C(F)(F)F)c(F)c2)C[C@@H]3C)cc(C)n1` [compound 61] came in with a melting point of 73.3 °C. For the same molecule, on human mGlu2 receptor, the IC50 was 2.82e-08 M and the maximal effect (Emax) is 106%.
The matching figures for `Cc1cc(-c2cnn3c2C(=O)N(c2ccc(Cl)c(F)c2)C[C@@H]3C)ccn1` [compound 62]: 141.7 °C, 3.31e-08 M and 105%.
On the same counts, the results for `COc1cc(N2C[C@H](C)n3ncc(-c4ccncc4)c3C2=O)ccc1C(F)(F)F` [compound 64] are 273.9 °C, 2.63e-08 M and 103%.
Turning to `C[C@H]1CN(c2ccc(Cl)c(C(F)(F)F)c2)C(=O)c2c(-c3ccncc3)cnn21` [compound 68], the melting point is over 300 °C. Moreover, on human mGlu2 receptor, the IC50 was 7.08e-08 M and the Emax worked out at 100%.
On the same counts, the results for `C[C@H]1CN(c2ccc(C(F)(F)F)cc2)C(=O)c2c(-c3ccnc(N)c3)cnn21` [compound 71, (7S)-3-(2-Aminopyridin-4-yl)-7-methyl-5-[4-(trifluoromethyl)phenyl]-6,7-dihydropyrazolo[1,5-a]pyrazin-4(5H)-one] are 218.9 °C, 9.77e-08 M and 103%.
On the same counts, the results for `Cc1cc(-c2cnn3c2C(=O)N(c2ccc(Cl)cc2)C[C@@H]3C)cc(C)n1` [compound 72] are 88 °C, 1.07e-07 M and 103%.
For `C[C@H]1CN(c2ccc(Cl)cc2)C(=O)c2c(-c3ccncc3)cnn21` [compound 73], the melting point worked out at 144.3 °C. At human mGlu2 receptor, the IC50 was 1.29e-07 M and the maximum response (Emax) was determined as 102%.
As for `CCOc1cc(N2CC(CO)n3ncc(-c4ccnc(C)c4)c3C2=O)ccc1C(F)(F)F` (stereo not drawn) [compound 74], the melting point was 99.1 °C. Besides, on human mGlu2 receptor, the IC50 was 2.14e-07 M and the maximal effect (Emax) was determined as 100%.
The matching figures for `Cc1cc(-c2cnn3c2C(=O)N(c2ccc(OCCF)c(C(F)(F)F)c2)C[C@@H]3C)ccn1` [compound 77, (7S)-5-[4-(2-Fluoroethoxy)-3-(trifluoromethyl)phenyl]-7-methyl-3-(2-methyl-4-pyridyl)-6,7-dihydropyrazolo[1,5-a]pyrazin-4-one]: 60.8 °C, 3.89e-07 M and 101%.
In turn, `COc1cc(N2C[C@H](C)n3ncc(-c4ccnc(C)c4)c3C2=O)cc(F)c1F` [compound 84] showed a melting point of 101.2 °C. At human mGlu2 receptor, the IC50 is 8.13e-07 M and the Emax was determined as 104%.
The matching figures for `COc1cc(F)cc(N2C[C@H](C)n3ncc(-c4ccnc(C)c4)c3C2=O)c1` [compound 85]: 133 °C, 9.55e-07 M and 101%.
On the same counts, the results for `COc1cc(-c2cnn3c2C(=O)N(c2ccc(C(F)(F)F)c(C#N)c2)C[C@@H]3C)ccn1` [compound 88] are 157.75 °C (dec.), 4.07e-08 M and 102%.
Molecule `C[C@H]1CN(c2ccc(C(F)(F)F)cc2)C(=O)c2c(-c3ccnc(N4CC(O)C4)c3)cnn21` [compound 101] displayed a melting point of over 300 °C. Besides, at human mGlu2 receptor, the IC50 was 4.07e-07 M and the maximal effect (Emax) came out at 109%.
Take `C[C@H]1CN(c2ccc(C(F)(F)F)cc2)C(=O)c2c(-c3ccnc(N4CCCC4)c3)cnn21` [compound 105]: the melting point is 124 °C. Besides, at human mGlu2 receptor, the IC50 is 2.75e-08 M and the Emax turned out to be 108%.
The matching figures for `C[C@H]1CN(c2ccc(C(F)(F)F)cc2)C(=O)c2c(-c3ccnc(N4CCOCC4)c3)cnn21` [compound 108]: 128.1 °C, 1.23e-07 M and 108%.
Molecule `C[C@H]1CN(c2ccc(Cl)c(Cl)c2)C(=O)c2c(-c3ccnc(C#N)c3)cnn21` [compound 109] gave a melting point of 149.8 °C. Also, on human mGlu2 receptor, the IC50 was 1.86e-08 M and the maximal response (Emax) was 107%.
On the same counts, the results for `CC(O)c1cc(-c2cnn3c2C(=O)N(c2ccc(Cl)c(Cl)c2)C[C@@H]3C)ccn1` (stereo partly drawn) [compound 111, (7S)-5-(3,4-Dichlorophenyl)-3-[2-(1-hydroxyethyl)-4-pyridyl]-7-methyl-6,7-dihydropyrazolo[1,5-a]pyrazin-4-one] are over 300 °C, 2.95e-07 M and 108%.
The matching figures for `C[C@H]1CN(c2ccc(C(F)(F)F)cc2)C(=O)c2c(-c3ccnc(CF)c3)cnn21` [compound 112]: 154.9 °C, 3.55e-08 M and 103%.
`C[C@H]1CN(c2ccc(Cl)c(Cl)c2)C(=O)c2c(-c3ccnc(C(F)F)c3)cnn21` [compound 114] yielded a melting point of 177.6 °C. On human mGlu2 receptor, the IC50 is 7.08e-09 M and the maximum response (Emax) stood at 104%.
In turn, `CCOc1cc(-c2cnn3c2C(=O)N(c2ccc(C(F)(F)F)cc2)C[C@@H]3C)ccn1` [compound 123] came in with a melting point of 189.5 °C. At human mGlu2 receptor, the IC50 was 6.61e-09 M and the Emax is 107%.
The matching figures for `CC(C)c1cc(-c2cnn3c2C(=O)N(c2ccc(Cl)c(Cl)c2)C[C@@H]3C)ccn1` [compound 124]: 62.4 °C, 3.02e-09 M and 108%.
For `C[C@H]1CN(c2ccc(Cl)c(Cl)c2)C(=O)c2c(-c3ccnc(CO)c3)cnn21` [compound 125, (7S)-5-(3,4-Dichlorophenyl)-3-[2-(hydroxymethyl)-4-pyridyl]-7-methyl-6,7-dihydropyrazolo[1,5-a]pyrazin-4-one], the melting point stood at 105.4 °C. Also, on human mGlu2 receptor, the IC50 is 1.78e-07 M and the Emax was determined as 105%.
For `CC(C)c1cc(-c2cnn3c2C(=O)N(c2ccc(C(F)(F)F)cc2)C[C@@H]3C)ccn1` [compound 126, (7S)-3-(2-Isopropyl-4-pyridyl)-7-methyl-5-[4-(trifluoromethyl)phenyl]-6,7-dihydropyrazolo[1,5-a]pyrazin-4-one], the melting point stood at 70.5 °C. Also, at human mGlu2 receptor, the IC50 was 5.75e-09 M and the Emax is 108%.
Consider `CC(O)c1cc(-c2cnn3c2C(=O)N(c2ccc(C(F)(F)F)cc2)C[C@@H]3C)ccn1` (stereo partly drawn) [compound 128], for which the melting point is 139.8 °C. At human mGlu2 receptor, the IC50 is 5.89e-07 M and the Emax is 104%.
On the same counts, the results for `CC[C@@H]1CN(c2ccc(C(F)(F)F)cc2)C(=O)c2c(-c3ccnc(C)c3)cnn21` [compound 129] are 135.1 °C, 6.92e-07 M and 100%.
The matching figures for `CC[C@H]1CN(c2ccc(C(F)(F)F)cc2)C(=O)c2c(-c3ccnc(C)c3)cnn21` [compound 130]: 134.4 °C, 1.7e-08 M and 102%.
`C[C@H]1CN(c2ccc(C(F)(F)F)cc2)C(=O)c2c(-c3ccnc(C(F)F)c3)cnn21` [compound 131] had a melting point of 134.7 °C. At human mGlu2 receptor, the IC50 was 2.45e-08 M and the maximal effect (Emax) came out at 105%.
The matching figures for `Cc1cc(-c2cnn3c2C(=O)N(c2cc(F)c(C(F)(F)F)c(F)c2)C[C@@H]3C)ccn1` [compound 132]: 148 °C, 2.4e-08 M and 103%.
On the same counts, the results for `Cc1cc(-c2cnn3c2C(=O)N(c2ccc(C4(C(F)(F)F)CC4)cc2)C[C@@H]3C)ccn1` [compound 136] are 126.2 °C, 4.37e-08 M and 102%.
